Measured values published in Sander's compilation of Henry's law constants (doi:10.1136/oem.51.1.68).

Experiment: Henry solubility constant Hcp at 310 K (mol/(m3 Pa))
Settings: reference: Kaneko et al. (1994)

Compared with `CC(C)O` [2-propanol], `CC(C)CO` [2-methyl-1-propanol] is lower in “Henry solubility constant Hcp at 310 K” value: 0.58 for the first, 0.44 for the second.

Compared with `CCCCOC(C)=O` [butyl ethanoate], `CCCCCOC(C)=O` [pentyl ethanoate] is lower in “Henry solubility constant Hcp at 310 K” value: 0.013 for the first, 0.0093 for the second.

First: CCCCCO [1-pentanol]
Second: CCCO [1-propanol]
The “Henry solubility constant Hcp at 310 K” value of the first is lower: 0.42 for the first, 0.72 for the second.

First: CC(=O)OCC(C)C [2-methylpropyl ethanoate]
Second: CC(=O)OCCC(C)C [3-methylbutyl ethanoate]
The “Henry solubility constant Hcp at 310 K” value of the first is higher: 0.01 for the first, 0.0088 for the second.

First: CCCOC(C)=O [propyl ethanoate]
Second: CCOC(C)=O [ethyl ethanoate]
The “Henry solubility constant Hcp at 310 K” value of the first is lower: 0.021 for the first, 0.028 for the second.

First: CC(=O)OC(C)C [2-propyl ethanoate]
Second: COC(C)=O [methyl ethanoate]
The “Henry solubility constant Hcp at 310 K” value of the first is lower: 0.013 for the first, 0.042 for the second.

Going from `CCO` [ethanol] to `CCC(C)CO` (centres undefined) [2-methyl-1-butanol], the “Henry solubility constant Hcp at 310 K” value falls from 0.83 to 0.33.
